Measurements reported in ChEMBL document CHEMBL1201862, “PubChem BioAssay data set” (2004).
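Cells were grown in 96-well plates and exposed to each compound for 48 hours at five concentrations; endpoints were interpolated linearly between bracketing concentrations, or set to the highest concentration if not reached. Abbreviation: GI50, concentration required for 50% inhibition of growth.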 The source made the active and inactive calls. No stated cut-off is given here; in the data, active = GI50 up to about 1.1 µM and inactive = higher.

Columns and labels:
Assay in all cases: NCI-60 cell line screen, 48 h
786-0 = system: 786-0
A498 = system: A498
CAKI-1 = system: CAKI-1
COLO 205 = system: COLO 205
EKVX = system: EKVX
LOX IMVI = system: LOX IMVI
M14 = system: M14
MOLT-4 = system: MOLT-4
NCI-H226 = system: NCI-H226
NCI-H23 = system: NCI-H23
RPMI-8226 = system: RPMI-8226
SK-MEL-2 = system: SK-MEL-2
SK-MEL-5 = system: SK-MEL-5
SNB-19 = system: SNB-19
SNB-75 = system: SNB-75
SR = system: SR
NCI/ADR-RES = system: NCI/ADR-RES
MDA-MB-231 = system: MDA-MB-231
MDA-MB-435 = system: MDA-MB-435
DU-145 = system: DU-145

SMILES | GI50 (786-0) | GI50 (A498) | GI50 (CAKI-1) | GI50 (COLO 205) | GI50 (EKVX) | GI50 (LOX IMVI) | GI50 (M14) | GI50 (MOLT-4) | GI50 (NCI-H226) | GI50 (NCI-H23) | GI50 (RPMI-8226) | GI50 (SK-MEL-2) | GI50 (SK-MEL-5) | GI50 (SNB-19) | GI50 (SNB-75) | GI50 (SR) | GI50 (NCI/ADR-RES) | GI50 (MDA-MB-231) | GI50 (MDA-MB-435) | GI50 (DU-145)
CNC(C)Cc1ccc(O)cc1 (configuration not stated) | > 100 µM (inactive) | > 100 µM (inactive) | > 100 µM (inactive) | > 100 µM (inactive) | > 100 µM (inactive) | > 100 µM (inactive) | > 100 µM (inactive) | > 100 µM (inactive) | > 100 µM (inactive) | > 100 µM (inactive) | > 100 µM (inactive) | > 100 µM (inactive) | > 100 µM (inactive) | > 100 µM (inactive) | > 100 µM (inactive) | > 100 µM (inactive) |  |  |  | 
CC(=O)c1ccc2c(c1)c1c(C)c3c[n+](C)ccc3c(C)c1n2C |  | 6.41 µM (inactive) | 6.92 µM (inactive) | 9.57 µM (inactive) | 33.3 µM (inactive) | 4.63 µM (inactive) |  | 0.641 µM (active) | 2.82 µM (inactive) |  | 3.84 µM (inactive) | 7.14 µM (inactive) | 4.73 µM (inactive) | 1.07 µM (active) | 7.48 µM (inactive) |  | 8.55 µM (inactive) |  |  | 
CSc1n[n+](C)cc(N)c1N | > 100 µM (inactive) | > 100 µM (inactive) | > 100 µM (inactive) | > 100 µM (inactive) | > 100 µM (inactive) | > 100 µM (inactive) | > 100 µM (inactive) | > 100 µM (inactive) | > 100 µM (inactive) | > 100 µM (inactive) | > 100 µM (inactive) | > 100 µM (inactive) | > 100 µM (inactive) | 29.9 µM (inactive) | > 100 µM (inactive) | > 100 µM (inactive) | > 100 µM (inactive) | > 100 µM (inactive) | > 100 µM (inactive) | 
Oc1cccc2nc3cc(CN4CCOCC4)c(CN4CCOCC4)cc3nc12 | 59.7 µM (inactive) | > 100 µM (inactive) | > 100 µM (inactive) | 56.9 µM (inactive) | > 100 µM (inactive) | 38.3 µM (inactive) | 18.7 µM (inactive) | 31.9 µM (inactive) | 68.7 µM (inactive) | > 100 µM (inactive) |  | > 100 µM (inactive) | 24.4 µM (inactive) | > 100 µM (inactive) | > 100 µM (inactive) | 40.2 µM (inactive) |  |  |  | 
Cc1nc(-c2nc([N+](=O)[O-])c([N+](=O)[O-])[nH]2)cs1 |  | > 100 µM (inactive) | > 100 µM (inactive) | > 100 µM (inactive) | > 100 µM (inactive) | > 100 µM (inactive) | > 100 µM (inactive) | > 100 µM (inactive) | > 100 µM (inactive) | > 100 µM (inactive) | > 100 µM (inactive) | > 100 µM (inactive) | > 100 µM (inactive) | > 100 µM (inactive) | > 100 µM (inactive) | > 100 µM (inactive) |  |  |  | 
CCCn1cc2c(SC)nc(SC)nc2n1 |  | > 100 µM (inactive) | > 100 µM (inactive) | > 100 µM (inactive) | > 100 µM (inactive) | > 100 µM (inactive) | > 100 µM (inactive) | > 100 µM (inactive) | 32.2 µM (inactive) | > 100 µM (inactive) | > 100 µM (inactive) | > 100 µM (inactive) | > 100 µM (inactive) | > 100 µM (inactive) | > 100 µM (inactive) | > 100 µM (inactive) |  |  |  | 
CN(C)C(=O)/C=C/c1c[nH]c(=O)[nH]c1=O |  | > 500 µM (inactive) | > 500 µM (inactive) | > 500 µM (inactive) | > 281 µM (inactive) | > 500 µM (inactive) |  | > 500 µM (inactive) | > 500 µM (inactive) | > 500 µM (inactive) | > 316 µM (inactive) | > 500 µM (inactive) | > 500 µM (inactive) | > 500 µM (inactive) | > 500 µM (inactive) |  | > 500 µM (inactive) |  |  | 
C#C[C@H]1CCCCCC1O (some centres not stated) | > 100 µM (inactive) | > 100 µM (inactive) | > 100 µM (inactive) | > 100 µM (inactive) | > 100 µM (inactive) | 29 µM (inactive) | > 100 µM (inactive) | > 100 µM (inactive) | > 100 µM (inactive) | > 100 µM (inactive) |  | > 100 µM (inactive) | > 100 µM (inactive) | > 100 µM (inactive) | > 100 µM (inactive) | 97.7 µM (inactive) |  |  |  | 
O=C(/C=C/c1ccccc1O)c1cccs1 | > 100 µM (inactive) | 11.9 µM (inactive) | > 100 µM (inactive) | > 100 µM (inactive) | > 100 µM (inactive) | > 100 µM (inactive) | > 100 µM (inactive) | > 100 µM (inactive) | > 100 µM (inactive) | > 100 µM (inactive) |  | > 100 µM (inactive) | > 100 µM (inactive) | > 100 µM (inactive) | > 100 µM (inactive) | > 100 µM (inactive) |  |  |  | 
CN(C)CC(CC1=C(CC(CN(C)C)N(C)C)CCC1)N(C)C (configuration not stated) |  | > 100 µM (inactive) | > 100 µM (inactive) | > 100 µM (inactive) | > 100 µM (inactive) | > 100 µM (inactive) |  | > 100 µM (inactive) | > 100 µM (inactive) | > 100 µM (inactive) | > 100 µM (inactive) | > 100 µM (inactive) | > 100 µM (inactive) | > 100 µM (inactive) | > 100 µM (inactive) |  | > 100 µM (inactive) |  |  | 
NC(=O)c1csc(CCCCCCc2nc(C(N)=O)cs2)n1 | > 45.3 µM (inactive) | > 100 µM (inactive) | > 100 µM (inactive) | > 59.3 µM (inactive) | > 100 µM (inactive) | > 61.7 µM (inactive) | > 100 µM (inactive) | > 100 µM (inactive) | > 100 µM (inactive) | > 100 µM (inactive) | > 50.9 µM (inactive) | > 100 µM (inactive) | > 100 µM (inactive) | > 100 µM (inactive) | > 100 µM (inactive) | > 100 µM (inactive) |  |  |  | 
O=C1NN=C(c2ccc([N+](=O)[O-])cc2)C1n1nc(-c2ccccc2)c2ccccc2c1=O (configuration not stated) | > 100 µM (inactive) | > 100 µM (inactive) | > 100 µM (inactive) | > 60.8 µM (inactive) | > 100 µM (inactive) | > 76.9 µM (inactive) | > 100 µM (inactive) | > 94.2 µM (inactive) | > 100 µM (inactive) | > 100 µM (inactive) | > 48.6 µM (inactive) | > 100 µM (inactive) | > 100 µM (inactive) | > 100 µM (inactive) | > 95.5 µM (inactive) | > 68.2 µM (inactive) |  |  |  | 
COc1ccc(C2=N/C(=C\c3ccccc3)C(=O)O2)cc1 |  |  |  |  | > 100 µM (inactive) |  | > 100 µM (inactive) | 13.3 µM (inactive) | 28.5 µM (inactive) |  | 36.6 µM (inactive) | > 100 µM (inactive) |  | 75.7 µM (inactive) | 45.2 µM (inactive) | 17.3 µM (inactive) | 16.7 µM (inactive) |  | > 100 µM (inactive) | 
COc1cc([C@@H]2c3cc4c(cc3[C@@H](NC(=O)c3cccc(N)c3)C3COC(=O)[C@@H]32)OCO4)cc(OC)c1O (some centres not stated) | 0.421 µM (active) | 0.76 µM (active) | 0.333 µM (active) | 11 µM (inactive) | 2.61 µM (inactive) | 0.491 µM (active) | 1.26 µM (inactive) | < 0.0147 µM (active) | 0.236 µM (active) | 0.261 µM (active) | 0.507 µM (active) | 3.3 µM (inactive) | 1.66 µM (inactive) | 0.569 µM (active) | 1.48 µM (inactive) | < 0.01 µM (active) |  |  |  | 
Cc1cc(O)c(C(C)C)cc1C(=S)Nc1ccc(Cl)cc1 | 14.1 µM (inactive) | 15.1 µM (inactive) | 14.6 µM (inactive) | 16.1 µM (inactive) | 12.7 µM (inactive) | 11.2 µM (inactive) |  | 3.4 µM (inactive) |  | 5.93 µM (inactive) | 8.3 µM (inactive) | 14.1 µM (inactive) | 11.5 µM (inactive) |  |  | 4.95 µM (inactive) | 12.9 µM (inactive) |  | 10.6 µM (inactive) | 17.7 µM (inactive)
c1ccc(Nc2nnc(-c3ccccc3Nc3ccccc3-c3nnc(Nc4ccccc4)s3)s2)cc1 | > 100 µM (inactive) |  |  | > 100 µM (inactive) | > 100 µM (inactive) | > 100 µM (inactive) | > 100 µM (inactive) | 61.7 µM (inactive) | > 100 µM (inactive) | > 100 µM (inactive) |  | > 100 µM (inactive) | > 100 µM (inactive) | > 100 µM (inactive) | > 100 µM (inactive) |  | > 100 µM (inactive) |  | > 100 µM (inactive) | > 100 µM (inactive)
CCCCCCCC/C=C\CCCCCCCC(=O)O [OLEIC ACID] |  | > 431 µM (inactive) | 118 µM (inactive) | > 500 µM (inactive) | 124 µM (inactive) | 116 µM (inactive) |  | 148 µM (inactive) | 9.48 µM (inactive) | 87.7 µM (inactive) | 91.6 µM (inactive) | 206 µM (inactive) | > 212 µM (inactive) | 143 µM (inactive) | 24.5 µM (inactive) |  | 102 µM (inactive) |  |  | 
Nc1ccc(/N=N/c2ccc(/C=C/c3ccc(/N=N/c4ccc(N)c5ccc(S(=O)(=O)O)cc45)cc3S(=O)(=O)O)c(S(=O)(=O)O)c2)c2cc(S(=O)(=O)O)ccc12 |  | > 100 µM (inactive) |  | > 100 µM (inactive) | > 100 µM (inactive) | > 100 µM (inactive) |  | > 100 µM (inactive) | > 71.1 µM (inactive) | > 100 µM (inactive) | > 100 µM (inactive) | > 100 µM (inactive) | > 100 µM (inactive) | > 100 µM (inactive) | 56.2 µM (inactive) |  | > 100 µM (inactive) |  |  | 
